What was measured:
[1] = system: Chrysosporium keratinophilum; experiment: Agar plate disc-diffusion, antifungal activity (inhibition zone); format: cell-based; conditions: Sabouraud's dextrose agar, 37° C., 72 hours, DMSO zone subtracted; for inhibition zone, Chrysosporium keratinophilum, A: A = concentration of comp. = 10,000 μL; for inhibition zone, Chrysosporium keratinophilum, B: B = concentration of comp. = 30.000 μL; for inhibition zone, Chrysosporium keratinophilum, C: C = concentration of comp. = 50,000 μL
Protocol: (§1) The agar plate disc-diffusion method was applied. Sterilized filter papers (6 mm in diameter) were wetted with 10 μL of a solution of 1-(2-hydroxybenzylideneamino)-5-phenylimidazolidine-2,4-dione (4) to be tested, containing 10 mg/mL in DMSO, and the discs were allowed to air dry. The discs were then placed onto the surface of agar plates (nutrient agar for bacteria and Sabouraud's dextrose agar for fungi) seeded with the test organism. Each plate contained 15 mL of the agar medium, previously seeded with 0.2 mL of the broth culture of each organism pregrown for 18 hours. The plates were incubated at 37° C. for 48 hours, and 72 hours for fungi. The inhibition zones was measured in millimeter. Discs impregnated with DMSO were used as a control, and its inhibition zone was subtracted from the tested compound actual inhibition zone.
(§2) The results of the antimicrobial testing can be observed in Tables 1 and 2, below, with ciprofloxacin serving as a reference.

Aspergillus flavus = experiment: as above; format: cell-based; conditions: Sabouraud's dextrose agar, 37° C., 72 hours, DMSO zone subtracted; for inhibition zone, Aspergillus flavus, A: A = concentration of comp. = 10,000 μL; for inhibition zone, Aspergillus flavus, B: B = concentration of comp. = 30.000 μL; for inhibition zone, Aspergillus flavus, C: C = concentration of comp. = 50,000 μL
Protocol: as §1, §2

Escherichia coli = experiment: Agar plate disc-diffusion, antibacterial activity (inhibition zone); format: cell-based; conditions: nutrient agar, 37° C., 48 hours, DMSO zone subtracted; for inhibition zone, Escherichia coli, A: A = concentration of comp. = 10,000 μL; for inhibition zone, Escherichia coli, B: B = concentration of comp. = 30.000 μL; for inhibition zone, Escherichia coli, C: C = concentration of comp. = 50,000 μL
Protocol: as §1, §2

Pseudomonas aeruginosa = experiment: as above; format: cell-based; conditions: nutrient agar, 37° C., 48 hours, DMSO zone subtracted; for inhibition zone, Pseudomonas aeruginosa, A: A = concentration of comp. = 10,000 μL; for inhibition zone, Pseudomonas aeruginosa, B: B = concentration of comp. = 30.000 μL; for inhibition zone, Pseudomonas aeruginosa, C: C = concentration of comp. = 50,000 μL
Protocol: as §1, §2

Bacillus Cereus = experiment: as above; format: cell-based; conditions: nutrient agar, 37° C., 48 hours, DMSO zone subtracted; for inhibition zone, Bacillus Cereus, B: B = concentration of comp. = 30.000 μL; for inhibition zone, Bacillus Cereus, C: C = concentration of comp. = 50,000 μL
Protocol: as §1, §2

Staphylococcus aureus = experiment: as above; format: cell-based; conditions: nutrient agar, 37° C., 48 hours, DMSO zone subtracted; for inhibition zone, Staphylococcus aureus, A: A = concentration of comp. = 10,000 μL; for inhibition zone, Staphylococcus aureus, B: B = concentration of comp. = 30.000 μL; for inhibition zone, Staphylococcus aureus, C: C = concentration of comp. = 50,000 μL
Protocol: as §1, §2

Row | Structure (SMILES) | inhibition zone, Chrysosporium keratinophilum, A [1] | inhibition zone, Chrysosporium keratinophilum, B [1] | inhibition zone, Chrysosporium keratinophilum, C [1] | inhibition zone, Aspergillus flavus, A (Aspergillus flavus) | inhibition zone, Aspergillus flavus, B (Aspergillus flavus) | inhibition zone, Aspergillus flavus, C (Aspergillus flavus) | inhibition zone, Escherichia coli, A (Escherichia coli) | inhibition zone, Escherichia coli, B (Escherichia coli) | inhibition zone, Escherichia coli, C (Escherichia coli) | inhibition zone, Pseudomonas aeruginosa, A (Pseudomonas aeruginosa) | inhibition zone, Pseudomonas aeruginosa, B (Pseudomonas aeruginosa) | inhibition zone, Pseudomonas aeruginosa, C (Pseudomonas aeruginosa) | inhibition zone, Bacillus Cereus, A (Bacillus Cereus) | inhibition zone, Bacillus Cereus, B (Bacillus Cereus) | inhibition zone, Bacillus Cereus, C (Bacillus Cereus) | inhibition zone, Staphylococcus aureus, A (Staphylococcus aureus) | inhibition zone, Staphylococcus aureus, B (Staphylococcus aureus) | inhibition zone, Staphylococcus aureus, C (Staphylococcus aureus) | melting point
1 | O=C(O)c1cn(C2CC2)c2cc(N3CCNCC3)c(F)cc2c1=O [Cip., ciprofloxacin, reference compound] | 29 millimeter | 30 millimeter | 53 millimeter | 29 millimeter | 30 millimeter | 42 millimeter | 30 millimeter | 39 millimeter | 60 millimeter | 29 millimeter | 30 millimeter | 53 millimeter | 29 millimeter | 30 millimeter | 42 millimeter | 43 millimeter | 44 millimeter | 53 millimeter | –
2 | O=C1NC(=O)N(/N=C/c2ccccc2O)C1c1ccccc1 (stereo not shown) [Compound 4, 1-(2-hydroxybenzylideneamino)-5-phenylimidazolidine-2,4-dione] | 27 millimeter | 29 millimeter | 48 millimeter | 24 millimeter | 28 millimeter | 38 millimeter | 27 millimeter | 36 millimeter | 49 millimeter | 20 millimeter | 26 millimeter | 37 millimeter | 23 millimeter | 27 millimeter | 35 millimeter | 15 millimeter | 19 millimeter | 27 millimeter | 161 to 163 °C

Reference: US11999704B1, “1-(2-hydroxybenzylideneamino)-5-phenylimidazolidine-2,4-dione as an antimicrobial compound” (KING FAISAL UNIVERSITY, priority 2023, dated 2024)
